Source: patent US20260258036A1, “INHIBITORS OF HUMAN ALDOSTERONE SYNTHASE (CYP11B2)” («TARGET MEDICALS» LIMITED LIABILITY COMPANY, priority 2022, published 2026)

Target: T1, recombinant CYP11B2 (Homo sapiens, UniProt P19099)
T1 sequence (P19099 25-503): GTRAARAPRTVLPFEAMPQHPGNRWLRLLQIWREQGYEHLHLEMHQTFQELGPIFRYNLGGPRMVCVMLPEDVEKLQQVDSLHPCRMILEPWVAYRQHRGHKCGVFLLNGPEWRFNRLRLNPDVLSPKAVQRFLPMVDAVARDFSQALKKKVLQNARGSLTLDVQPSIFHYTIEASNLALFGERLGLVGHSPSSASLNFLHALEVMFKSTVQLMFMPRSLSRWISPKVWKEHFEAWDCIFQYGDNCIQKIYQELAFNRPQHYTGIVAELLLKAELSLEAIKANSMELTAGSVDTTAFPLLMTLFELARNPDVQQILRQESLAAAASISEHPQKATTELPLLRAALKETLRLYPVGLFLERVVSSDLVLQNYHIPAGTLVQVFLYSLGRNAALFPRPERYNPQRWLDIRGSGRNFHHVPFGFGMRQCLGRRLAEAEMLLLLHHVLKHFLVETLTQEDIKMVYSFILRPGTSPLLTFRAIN
Experiment: Inhibition of CYP11B2 activity in a reconstructed enzyme system (HPLC with UV detector)
Type: biochemical
Conditions: compounds 2_xx, 3_xx, 4_01; test compound final concentration ≤2 μM; corticosterone substrate; 30 minutes at 37° C.
Experimental: The authors of the present invention investigated the activity of the compounds according to the invention as inhibitors of CYP11 B2 when analyzed in a reconstructed system containing 0.5 μm recombinant CYP1 1B2, 0.3 μm human adrenodoxin reductase, 2 μm human adrenodoxin, 100 μm corticosterone as a control reaction to detect the formation of a product with using an HPLC system with a UV detector. The test compound is added to the reaction mixture to a final concentration of ≤2 μM. The concentrated protein mixture was diluted with buffer to a final volume of 0.5 ml, pre-incubated for 10 min at 37° C., followed by the addition of the substrate. Reactions are initiated by adding NADPH (nicotinamide adenine dinucleotide phosphate) to a final concentration of 0.25 mM with a regenerating system (glucose-6-phosphate and glucose-6-phosphate dehydrogenase) in 25 mM potassium phosphate buffer, pH 7.4, containing 0.1 mM DTT (dithiothreitol), 0.1% Tween-20.4 mM MgCl2 and incubated at 37° C. After 30 minutes of incubation, the reaction is stopped by adding 5 ml of dichloromethane. The organic phase is isolated by centrifugation, evaporation, dissolution in ethanol and transferred to a vial for HPLC studies. A C18 Luna 100 Å 250×4, 6 mm column was used on an Agilent Technologies 1200 series instrument (USA) with ethanol as the mobile phase.
Activity (a) is calculated as the amount of product in nmol per minute per 1 nmol of CYP.
where k is the correction factor (k=1 is used as the molar extinction coefficients of steroid substrates and products similar at a detection wavelength of 254 nm), As is the peak area of the substrate, cs is the concentration of the substrate, Ap is the peak area of the product, ce is the concentration of CYP (cytochrome P450), t is the reaction time.
The level of inhibition of CYP11 B2 activity is expressed as a percentage, where 0% is defined as no inhibition in reactions without test compound and 100% is absolute inhibition by test compound.

SMILES | Level of CYP11B2 activity inhibition
Cl.O=S(=O)(c1cc(F)c(N2CCNCC2)c(F)c1)n1ccc2c(-c3ccccn3)cncc21 [Compound 3_27, 1-((3,5-difluoro-4-(piperazin-1-yl)phenyl)sulfonyl)-4-(pyridin-2-yl)-1H-pyrrolo[2,3-c]pyridine] | ++ (inhibition of CYP11B2 activity in the range of 20-100% (++))

Same assay, conditions: compounds 2_xx, 3_xx, 4_01; test compound final concentration ≤2 μM; corticosterone substrate; 30 minutes at 37° C.; read-out: Level of CYP11B2 activity inhibition

inhibition at 2 µM | SMILES
35 to 100% | O=S(=O)(c1cc(F)c(N2CCN3CCC2C3)c(F)c1)n1ccc2c(-c3ccccn3)cncc21 (stereo not drawn) [Compound 3_20, 1-((4-(1,4-diazabicyclo[3.2.1]octan-4-yl)-3,5-difluorophenyl)sulfonyl)-4-(pyridin-2-yl)-1H-pyrrolo[2,3-c]pyridine]
20 to 100% | O=S(=O)(c1cc(F)c(N2CC3(CNC3)C2)c(F)c1)n1ccc2c(-c3ccccn3)cncc21 [Compound 3_21, 1-((3,5-difluoro-4-(2,6-diazaspiro[3.3]heptan-2-yl)phenyl)sulfonyl)-4-(pyridin-2-yl)-1H-pyrrolo[2,3-c]pyridine]
35 to 100% | CNc1cnc(-c2cncc3c2ccn3S(=O)(=O)c2cc(F)c(N3CC4CN(C)CC4C3)c(F)c2)cn1 (stereo not drawn) [Compound 3_22, 5-(1-((3,5-difluoro-4-(5-methylhexahydropyrrolo[3,4-c]pyrrol-2(1H)-yl)phenyl)sulfonyl)-1H-pyrrolo[2,3-c]pyridin-4-yl)-N-methylpyrazin-2-amine]
35 to 100% | CN1CC2CN(c3c(F)cc(S(=O)(=O)n4ccc5c(-c6cnc(C#N)cn6)cncc54)cc3F)CC2C1 (stereo not drawn) [Compound 3_23, 5-(1-((3,5-difluoro-4-(5-methylhexahydropyrrolo[3,4-c]pyrrol-2(1H)-yl)phenyl)sulfonyl)-1H-pyrrolo[2,3-c]pyridin-4-yl)pyrazine-2-carbonitrile]
35 to 100% | CN1CC2CN(c3c(F)cc(S(=O)(=O)n4ccc5c(-c6ccc(C#N)nc6)cncc54)cc3F)CC2C1 (stereo not drawn) [Compound 3_24, 5-(1-((3,5-difluoro-4-(5-methylhexahydropyrrolo[3,4-c]pyrrol-2(1H)-yl)phenyl)sulfonyl)-1H-pyrrolo[2,3-c]pyridin-4-yl)picolinonitrile]
35 to 100% | O=S(=O)(c1cc(F)c(N2CC3CC2CN3)c(F)c1)n1ccc2c(-c3ccccn3)cncc21 (stereo not drawn) [Compound 3_25, 1-((4-(2,5-diazabicyclo[2.2.1]heptan-2-yl)-3,5-difluorophenyl)sulfonyl)-4-(pyridin-2-yl)-1H-pyrrolo[2,3-c]pyridine]
35 to 100% | N#Cc1ccc(-c2cncc3c2ccn3S(=O)(=O)c2cc(F)c(N3CC4CNCC4C3)c(F)c2)cn1 (stereo not drawn) [Compound 3_28, 5-(1-((3,5-difluoro-4-(hexahydropyrrolo[3,4-c]pyrrol-2(1H)-yl)phenyl)sulfonyl)-1H-pyrrolo[2,3-c]pyridin-4-yl)picolinonitrile]
35 to 100% | CN1CCN(c2c(F)cc(S(=O)(=O)n3ccc4c(-c5ccccn5)cncc43)cc2F)CC1 [Compound 4_01, 1-((3,5-difluoro-4-(4-methylpiperazin-1-yl)phenyl)sulfonyl)-4-(pyridin-2-yl)-1H-pyrrolo[2,3-c]pyridine]

SMILES | inhibition at 2 µM
CN1CC2CC(C1)N2c1c(F)cc(S(=O)(=O)n2ccc3c(-c4ccccn4)cncc32)cc1F [Compound 3_18, 6-(2,6-difluoro-4-((4-(pyridin-2-yl)-1H-pyrrolo[2,3-c]pyridin-1-yl)sulfonyl)phenyl)-3-methyl-3,6-diazabicyclo[3.1.1]heptane] | 35 to 100%
CN1CC2CCC(C1)N2c1c(F)cc(S(=O)(=O)n2ccc3c(-c4ccccn4)cncc32)cc1F [Compound 3_19, 1-((3,5-difluoro-4-(3-methyl-3,8-diazabicyclo[3.2.1]octan-8-yl)phenyl)sulfonyl)-4-(pyridin-2-yl)-1H-pyrrolo[2,3-c]pyridine] | 35 to 100%
O=S(=O)(c1cc(F)c(N2C3CCC2CNC3)c(F)c1)n1ccc2c(-c3ccccn3)cncc21 [Compound 3_26, 1-((4-(3,8-diazabicyclo[3.2.1]octan-8-yl)-3,5-difluorophenyl)sulfonyl)-4-(pyridin-2-yl)-1H-pyrrolo[2,3-c]pyridine] | 35 to 100%
